Experimental findings from patent publication US4757083A, “Novel pyrrolidinylamide ester derivatives having anti-prolyl endopeptidase activity and synthesis and use thereof” (Suntory Limited, priority 1985, dated 1988) are described below.

The target in this assay is prolyl endopeptidase (Elizabethkingia meningoseptica, UniProt P27028). Put plainly: Measurement of anti-prolyl endopeptidase activity (Z-glycyl-proline-β-naphthylamide substrate). It counts as biochemical. The settings on record: amount for 50% inhibition, pH 7.0, 35° C., 10 minutes, absorbance at 410 nm. As to the method: The method of Yoshimoto and Tsuru [T. Yoshimoto and D. Tsuru, Agric. Biol. Chem., 42, 2417 (1978)] was used to measured the anti-prolyl endopeptidase activities of several compounds of the present invention. A mixture of 0.0025M Z-glycyl-proline-β-naphthylamide (0.25 ml), 0.1M phosphate buffer (pH, 7.0; 0.99 ml) and a solution of a particular anti-prolyl endopeptidase compound (0.01 ml) was incubated in a test tube at 37° C. for 3 minutes. Thereafter, 0.1 ml of a solution of prolyl endopeptidase (0.2 U/ml) was added and the mixture was incubated at 35° C. for 10 minutes. After the reaction, 2.0 ml of Triton X-100 in 1M acetate buffer (pH, 4.0) was added to the reaction mixture so that the final concentration of the surfactant was 10%. The mixture was left at room temperature for 15 minutes and the absorbance (a) at 410 nm was measured.
Chain of prolyl endopeptidase (P27028 21-705): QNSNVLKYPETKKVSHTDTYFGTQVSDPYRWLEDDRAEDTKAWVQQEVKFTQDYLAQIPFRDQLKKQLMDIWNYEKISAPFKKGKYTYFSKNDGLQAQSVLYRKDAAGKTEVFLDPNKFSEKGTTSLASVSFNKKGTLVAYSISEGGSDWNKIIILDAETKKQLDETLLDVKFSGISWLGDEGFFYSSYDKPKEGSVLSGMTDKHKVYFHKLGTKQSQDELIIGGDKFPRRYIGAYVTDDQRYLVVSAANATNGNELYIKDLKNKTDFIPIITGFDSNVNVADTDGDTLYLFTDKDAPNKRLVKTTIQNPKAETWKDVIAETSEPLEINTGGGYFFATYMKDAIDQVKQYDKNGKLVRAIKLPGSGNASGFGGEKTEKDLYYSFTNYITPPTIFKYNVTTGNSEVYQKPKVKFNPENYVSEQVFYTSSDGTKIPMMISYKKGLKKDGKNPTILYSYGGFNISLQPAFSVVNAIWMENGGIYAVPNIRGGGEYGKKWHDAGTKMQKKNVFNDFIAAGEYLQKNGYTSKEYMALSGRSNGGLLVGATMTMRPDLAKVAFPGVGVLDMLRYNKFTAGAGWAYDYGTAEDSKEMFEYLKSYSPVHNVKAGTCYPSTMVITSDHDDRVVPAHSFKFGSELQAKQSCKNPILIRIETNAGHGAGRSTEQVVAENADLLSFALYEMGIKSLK
A sample of a blind test was prepared by using the buffer instead of the anti-prolyl endopeptidase compound and its absorbance (b) was also measured. The percent inhibition of prolyl endopeptidase was calculated by the formula: […]
and the amount of a specific compound needed to achieve 50% inhibition (IC50) was determined.
Take `CCCCCCC(OC(=O)CCCc1ccccc1)C(=O)N1CCCC1` (stereo not drawn) [Example 3, N-[2-(γ-phenyl)butyryloxy-n-capryloyl]pyrrolidine]: the IC50 is given as 4.0 μg/test tube.
For the compound `CC(C)C(OC(=O)CCCc1ccccc1)C(=O)N1CCCC1` (stereo not drawn) [Example 2, N-[2-(γ-phenyl)butyryloxy-3-methylbutyryl]pyrrolidine], the IC50 is on record as 0.90 μg/test tube.
Consider `CC(C)CC(OC(=O)CCCc1ccccc1)C(=O)N1CCCC1` (stereo not drawn) [Example 1, N-[2-(γ-phenyl)butyryloxy-4-methylvaleryl]pyrrolidine], for which the IC50 is given as 0.70 μg/test tube.
